Test results from article PMC5150241, “Antimicrobial mechanism of theaflavins: They target 1-deoxy-D-xylulose 5-phosphate reductoisomerase, the key enzyme of the MEP terpenoid biosynthetic pathway” (Scientific Reports, 2016).
Where two headings read alike, the source gives them in different places.

Legend:
E. coli DXR [1] = molecular target: T1, E. coli DXR (Escherichia coli, UniProt P45568); assay: DXR inhibition assay, pre-column derivatization HPLC method; type: biochemical; settings: for Inhibition (%) Triton, lower concentration / Inhibition (%) Triton, higher concentration: 0.01% Triton X-100; for Inhibition (%) Triton, lower concentration / Inhibition (%) No Triton, lower concentration: conc: TF 150, TF3G 30, TF3′G 20, TF3,3′G 15, baicalein 50 μM; for Inhibition (%) Triton, higher concentration / Inhibition (%) No Triton, higher concentration: conc: TF 250, TF3G 50, TF3′G 40, TF3,3′G 30, baicalein 100 μM; for IC50: 2 mM VC, 0.5 mM NADPH, 1 mM DXP, 37 °C, 30 min, read-out: IC50 against DXR; for Inhibition (%) No Triton, lower concentration / Inhibition (%) No Triton, higher concentration: no Triton X-100
T1 construct: made in house
T1 sequence (P45568 whole entry): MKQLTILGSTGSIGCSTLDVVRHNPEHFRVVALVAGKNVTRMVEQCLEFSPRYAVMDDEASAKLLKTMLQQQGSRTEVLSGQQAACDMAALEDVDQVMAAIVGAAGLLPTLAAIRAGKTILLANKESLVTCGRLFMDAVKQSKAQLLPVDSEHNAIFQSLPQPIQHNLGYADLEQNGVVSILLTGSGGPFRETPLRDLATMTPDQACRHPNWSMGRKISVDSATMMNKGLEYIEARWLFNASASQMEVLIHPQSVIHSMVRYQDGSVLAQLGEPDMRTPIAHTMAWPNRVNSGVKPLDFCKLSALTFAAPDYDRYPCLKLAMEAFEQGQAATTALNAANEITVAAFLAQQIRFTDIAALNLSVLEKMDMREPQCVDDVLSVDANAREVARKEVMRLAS
Procedure: Then, we evaluated the DXR inhibitory activity of all four theaflavins at a final concentration of approximately 150 μM, employing 2% DMSO as a co-solvent and VC as a protective agent. […] Encouraged by these experiments, we further determined the DXR inhibitory effects of the theaflavins at different concentrations.
We therefore determined the DXR inhibitory activity of the theaflavins using 0.01% Triton X-100 as a surfactant to verify whether the theaflavins were aggregating inhibitors of DXR. Exactly the same procedure as described in the experimental part was followed to carry out the measurements. […] Then, we set two distinct concentrations for each of the theaflavins to evaluate its inhibition against DXR, one was close to its IC50 value and the other was about twice of it.
The inhibitory activity of the theaflavins and baicalein against E. coli DXR was determined using the pre-column derivatization HPLC method published by this group with minor modifications[29]. The assay mixture consists of 50 mM Tris-HCl (pH 7.4), 5 mM MgCl2, 2 mM VC, 0.5 mM NADPH, 2% (W/V) DMSO or 0.01% Triton X-100, and 4 μg/mL DXR in a final volume of 100 μL. The theaflavin compounds or baicalein were added to the mixtures separately before the addition of DXP (final conc. 1 mM) to start the reaction. […] The reaction mixture was incubated at 37 °C for 30 min before the DXR was inactivated by boiling for 3 minutes. Subsequently, 10 μL AP buffer (1 M Tris-HCl, 1 M NaCl2 50 mM MgCl2, pH 9.5) and 2 U AP were added, and the mixture was incubated at 37 °C for 120 min. 10 μL DNPH (120 mM in 30% perchloric acid, V/V) and 280 μL methanol were supplemented. After incubated at 37 °C for another 45 min, the mixture was centrifuged at 6000 rpm for 3 min and the supernatant was used for HPLC analysis on the Agilent 1200 HPLC system. HPLC conditions: Column, Shim-pack VP-ODS column (250 × 4.6 mm, 4.6 μm). Injection volume: 60 μL. Gradient: 0 min, 40% acetonitrile; 17 min, 80% acetonitrile; 18–20 min, 40% acetonitrile. Detection wavelength: 360 nm. Flow rate: 0.7 mL/min. Column temperature: 30 °C.

[2] = Particle size analysis by dynamic light scattering (DLS); type: physicochemical; settings: 50 mM Tris-HCl pH 7.4, 2 mM VC, 2% DMSO; for DLS Count Rate, with 4 μg/mL DXR / DLS Count Rate, without DXR: conc: TF 500, TF3G 100, TF3′G 100, TF3,3′G 70, baicalein 200 μM
Procedure: DLS is a widely utilized technique in materials science to measure particle sizes in solutions[20][21]. […] Baicalein was referenced as a positive control owing to the same reason as mentioned above. The particle size evaluation was performed by a DLS analyzer and the results display that except for baicalein, the theaflavins produce no detectable particles.
The particle size of the theaflavin compounds and baicalein in Tris-HCl buffer (50 mM, pH 7.4) containing 2 mM VC and 2.0% DMSO (V/V) was measured in the absence and presence of DXR (final concentration: 4 μg/mL) on a DLS analyzer (NICOMP-380, Particle Sizing Systems, Inc., Santa Barbara, Calif., USA). The detector time was set to 10 min. […] A solution of 2.0% aqueous DMSO was used as a reference.

Plasmodium falciparum = settings: malaria caused by Plasmodium falciparum; cited from earlier work
[3] = parameters: method as in earlier work; settings: cited from earlier work
[4] = Stability of the theaflavins under the DXR assay conditions (HPLC); type: physicochemical; settings: 100 μM before incubation, 50 mM Tris-HCl pH 7.4, 37 °C, 35 min; for Concentration after incubation in the absence of 2 mM VC: no VC
Procedure: The theaflavins are unstable compounds, especially under a basic condition. Because the DXR inhibition assay needs to be carried out in 50 mM Tris-HCl buffer at pH 7.4 and incubated at 37 °C for 30 min, we have to test whether the theaflavins can survive the assay condition, although it is almost neutral. The compounds were actually incubated at 37 °C for 35 min, 5 min longer than that of the real DXR assay. The results, as depicted in Table 1, indicate that almost half of the theaflavins decomposed after incubation. That is to say that these compounds are unstable even under the weak basic condition. […] Thus VC (2 mM) was used to protect the theaflavins in the following assays.
Stability of the theaflavins in Tris-HCl buffer was evaluated using an Agilent 1200 HPLC equipped with a DAD detector. The theaflavins were separately diluted into 50 mM Tris-HCl buffer (pH 7.4) containing 5 mM MgCl2 and 2% (W/V) DMSO to a final concentration of 100 μM in the absence and presence of 2 mM VC. The mixtures were subsequently incubated at 37 °C for 35 min before they were centrifuged at 6000 rpm for 3 min and analyzed. HPLC conditions: Column, Shim-pack VP-ODS column (250 × 4.6 mm, 4.6 μm). Detection wavelength: 280 nm. Injection volume: 20 μL. The mobile phase consists of 60% solvent A [2% acetic acid in water (v/v)] and 40% solvent B (acetonitrile). Flow rate: 0.7 mL/min. Column temperature: 25 °C. […]
1. Stability of the theaflavins under the DXR assay conditions
In order to evaluate the stability of the theaflavins under the DXR assay conditions, each compound was diluted into 50 mM Tris-HCl buffer (pH 7.4) and incubated at 37 °C for 35 min in the absence and presence of 2 mM VC before they were determined by HPLC. The HPLC profiles were listed in Fig. S1. From the figure we are able to see that in the presence of 2 mM VC, the four theaflavin compounds are stable because the peak area of each compound remains almost unchanged after incubation (B). But they are unstable in the absence of VC because the peak areas of all four […]
(1 picture or pasted object on this page, not shown here)
Figure S1. The stabilitiy of the theaflavin compounds under DXR assay conditions. A. Mixtures of VC and individual theaflavins in 50 mM Tris-HCl buffer (pH 7.4) before incubation; B. Mixtures of VC and individual theaflavins in same buffer after incubated at 37 °C for 35 min; C. Individual theaflavins in same buffer after incubated at 37 °C for 35 min. In A and B. Line 1, TF (100 μM) plus VC (2 mM); Line 2, TF3G (100μM) plus VC (2 mM); Line 3, TF3’G (100μM) plus VC (2 mM); Line 4, TF3,3’G (100μM) plus VC (2 mM). In C. Line 1, TF (100 μM); Line 2, TF3G (100μM); Line 3, TF3’G (100μM); Line 4, TF3,3’G (100μM). HPLC conditions:
Column, Shim-pack VP-ODS column (250 × 4.6 mm, 4.6μm). Detection wavelength: 280 nm. The mobile phase consisted of 60% solvent A [2% acetic acid in water (v/v)] and 40% solvent B (acetonitrile). Flow rate:
0.7 mL/min. Column temperature: 25 °C. […]

E. coli DXR [5] = molecular target: T1, E. coli DXR; assay: Inhibition kinetics against DXR (Lineweaver-Burk plots); type: biochemical; settings: for Ki: 2 μg/mL DXR; for Kinetics (DXP): inhibition mode with respect to DXP; for Kinetics (NADPH): inhibition mode with respect to NADPH
Procedure: Lineweaver-Burk (LB) graphical charts were obtained by plotting the reciprocal of the reaction velocity against the reciprocal of the concentration of DXP/NADPH.
For A, the mixtures contained 1 mM DXP and NADPH (final conc. 0.05 to 0.275 mM); For B, the mixtures contained 0.5 mM NADPH and DXP (final conc. 0.075 to 0.3375 mM). The incubation was performed for 10 min at 37 °C before the reaction mixtures were hydrolyzed with AP, derivatized with DNPH, and analyzed using the HPLC method.
Lineweaver–Burk plots of DXR with respect to NADPH in the absence and presence of TF (A-1),
Assay mixtures comprised 50 mM tris-HCl (pH 7.4), 5 mM
MgCl2, 2 mM VC, the theaflavins (TF: 0, 2, 10, 20 μM; the other three compounds: 0, 1, 4, or 8 μM), 1 mM DXP and 2 μg/mL DXR in a final volume of 100 μL. Then, NADPH (final conc. 0.05 to 0.275 mM) was added, and incubation was performed for 10 min at 37 °C before the reaction mixtures were hydrolyzed with AP, derivatized with DNPH, and analyzed using the HPLC method. (A-1) DXR inhibition kinetics of TF; (A-2) DXR inhibition kinetics of TF3G; (A-3) DXR inhibition kinetics of TF3’G; (A-4) DXR inhibition kinetics of
Lineweaver–Burk plots of DXR with respect to DXP in the absence and presence of TF (B-1),
MgCl2, 2 mM VC, the theaflavins (TF: 0, 5, 10, 20 μM; the other three compounds: 0, 1, 4, or 8 μM), 0.5 mM NADPH, and 2 μg/mL. DXR in a final volume of 100 μL. Then, DXP (final conc. 0.075 to 0.3375 mM) was added, and incubation proceeded for 10 min at 37 °C before the reaction mixtures were hydrolyzed with AP, derivatized with DNPH, and analyzed using the HPLC method. (B-1) DXR inhibition kinetics of TF; (B-2) DXR inhibition kinetics of TF3G; (B-3) DXR inhibition kinetics of TF3’G; (B-4) DXR inhibition kinetics of

Calf intestine AP = molecular target: T2, Calf intestine AP (Bos taurus, UniProt P19111); assay: Alkaline phosphatase (AP) inhibition assay, HPLC method; type: biochemical; settings: 2 mM
T2 construct: purchased Takara (Dalian, China)
T2 sequence (P19111 20-533): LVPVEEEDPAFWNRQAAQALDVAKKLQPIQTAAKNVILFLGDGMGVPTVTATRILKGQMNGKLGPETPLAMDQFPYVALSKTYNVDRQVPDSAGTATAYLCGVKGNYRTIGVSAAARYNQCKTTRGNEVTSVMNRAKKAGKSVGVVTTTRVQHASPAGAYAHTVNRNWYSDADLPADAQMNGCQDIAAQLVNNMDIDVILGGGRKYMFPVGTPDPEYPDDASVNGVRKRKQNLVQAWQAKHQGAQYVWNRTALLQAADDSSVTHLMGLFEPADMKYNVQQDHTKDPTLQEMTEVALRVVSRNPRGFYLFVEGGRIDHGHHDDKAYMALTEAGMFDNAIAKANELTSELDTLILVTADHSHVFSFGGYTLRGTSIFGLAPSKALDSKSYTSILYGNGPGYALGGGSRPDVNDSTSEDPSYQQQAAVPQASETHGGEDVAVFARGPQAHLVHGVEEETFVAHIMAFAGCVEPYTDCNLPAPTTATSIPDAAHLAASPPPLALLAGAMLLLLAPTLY
Procedure: The other factor that could influence the determination of inhibitory activity of the theaflavins against DXR would be the AP because we must use it to dephosphorylate DXP before DNPH derivatization. We thus measured whether VC and the theaflavins might display any inhibition against this enzyme. We find that VC has no effect on the activity of AP at 2 mM and the four theaflavins also have no inhibition against AP at all (Fig. 4), even at final concentrations as high as 500 μM.
Figure 4 Determination of inhibition of VC and the theaflavins against AP. The reaction mixtures comprise 10 μL AP buffer and 2 U AP in a final volume of 100 μL, DXP was added (final conc. 1 mM) to start the reaction. The reaction mixtures were incubated at 37 °C for 120 min and subsequently derivatized with DNPH and analyzed with the HPLC method. For VC assay, 2 mM VC was added before the addition of DXP. For assays of the theaflavins, the compounds were added separately before the addition of DXP (two concentrations, 20 and 500 μM for each compound were applied).
The HPLC method described above was also used to determine the inhibitory activity of the theaflavins against AP. The reaction mixture comprises 2 mM VC, 10 μL AP buffer and 2 U AP in a final volume of 100 μL. […] Then, the reaction mixture was derivatized with DNPH and analyzed with the HPLC method.

[6] = DXP as varied substrate, 0.5 mM NADPH, read-out: Ki (DXP)
[7] = NADPH as varied substrate, 1 mM DXP, read-out: Ki (NADPH)

Molecule | DLS Count Rate, with 4 μg/mL DXR ([2]; 4 μg/mL DXR) | DLS Count Rate, without DXR [2] | Concentration after incubation in the presence of 2 mM VC [4] | Concentration after incubation in the absence of 2 mM VC [4] | Inhibition (%) Triton, lower concentration (E. coli DXR [1]) | Inhibition (%) Triton, higher concentration (E. coli DXR [1]) | IC50 (E. coli DXR [1]; 2% DMSO) | Inhibition (%) No Triton, lower concentration (E. coli DXR [1]) | Inhibition (%) No Triton, higher concentration (E. coli DXR [1]) | Ki (E. coli DXR [5]; [6]) | Ki (E. coli DXR [5]; [7]) | Kinetics (DXP) (E. coli DXR [5]) | Kinetics (NADPH) (E. coli DXR [5]) | also measured
O=c1cc(-c2ccccc2)oc2cc(O)c(O)c(O)c12 [Baicalein, baicalein, reference compound] | 296 ± 19.7 KHz | 2.6 ± 0.5 KHz |  |  |  |  |  |  |  |  |  |  |  | inhibition at 100 µM (E. coli DXR [1]; read-out: Inhibition (%) No Triton, higher concentration): 63.5 ± 2.9%; inhibition at 50 µM (E. coli DXR [1]; read-out: Inhibition (%) No Triton, lower concentration): 37.6 ± 4.7%; inhibition at 100 µM (E. coli DXR [1]; read-out: Inhibition (%) Triton, higher concentration): 6.5 ± 4.6%; inhibition at 50 µM (E. coli DXR [1]; read-out: Inhibition (%) Triton, lower concentration): 5.1 ± 3.9%; DLS Size, with 4 μg/mL DXR ([2]; 4 μg/mL DXR, baicalein 200 μM): 429.2 ± 84.7 nm
O=CN(O)CCCP(=O)(O)O [Fosmidomycin, fosmidomycin] |  |  |  |  |  |  |  |  |  |  |  |  |  | Efficacy in treating malaria (clinical data) (Plasmodium falciparum): somewhat effective; Inhibition of DXR activity (positive control) (E. coli DXR [1]; 1.0 μM): complete inhibition; Bioavailability [3]: poor; Plasma half-life [3]: ~ 1 h
O=C(O[C@@H]1Cc2c(O)cc(O)cc2O[C@@H]1c1cc(O)c(=O)c2c(O)c(O)cc([C@H]3Oc4cc(O)cc(O)c4C[C@H]3OC(=O)c3cc(O)c(O)c(O)c3)c2c1)c1cc(O)c(O)c(O)c1 [TF3,3′G, theaflavin-3,3′-digallate] | 4.8 ± 0.4 KHz | 2.2 ± 0.4 KHz | 96.72 ± 2.78 µM | 55.26 ± 4.32 µM |  |  |  |  |  |  |  |  |  | 
O=C(O[C@@H]1Cc2c(O)cc(O)cc2O[C@@H]1c1cc(O)c(O)c2c(=O)c(O)cc([C@H]3Oc4cc(O)cc(O)c4C[C@H]3O)cc12)c1cc(O)c(O)c(O)c1 [TF3G] | 4.6 ± 0.5 KHz | 2.6 ± 0.5 KHz | 98.15 ± 2.86 µM | 60.88 ± 2.77 µM | 52.7 ± 2.4% | 67.9 ± 3.4% | 29.2 ± 2.6 µM | 52.6 ± 3.2% | 69.6 ± 2.7% | 30.2 ± 2.6 µM | 24.7 ± 3.2 µM | Noncompetitive | Uncompetitive | 
O=C(O[C@@H]1Cc2c(O)cc(O)cc2O[C@@H]1c1cc(O)c(=O)c2c(O)c(O)cc([C@H]3Oc4cc(O)cc(O)c4C[C@H]3O)c2c1)c1cc(O)c(O)c(O)c1 [TF3′G, theaflavin-3′-gallate] | 5.2 ± 0.4 KHz | 1.4 ± 0.5 KHz | 98.08 ± 3.02 µM | 61.17 ± 4.29 µM | 42.5 ± 3.3% | 70.7 ± 3.3% | 23.7 ± 2.9 µM | 41.3 ± 2.9% | 70.3 ± 3.4% | 22.2 ± 3.1 µM | 22.4 ± 2.1 µM | Noncompetitive | Uncompetitive | 
O=c1c(O)cc([C@H]2Oc3cc(O)cc(O)c3C[C@H]2O)cc2c([C@H]3Oc4cc(O)cc(O)c4C[C@H]3O)cc(O)c(O)c12 [TF, theaflavin] | 5.8 ± 0.4 KHz | 2.2 ± 0.4 KHz | 98.97 ± 3.27 µM | 63.01 ± 3.73 µM | 43.9 ± 3.6% | 62.2 ± 2.9% | 162 ± 3.6 µM | 45.3 ± 3.4% | 63.1 ± 2.4% | 107 ± 3.9 µM | 83.1 ± 4.3 µM | Noncompetitive | Uncompetitive | Inhibition against DXR at a single concentration (E. coli DXR [1]; approximately 150 μM, 2% DMSO, VC): approximately 40%
O=C1O[C@H]([C@@H](O)CO)C(O)=C1O [VC, ascorbic acid] |  |  |  |  |  |  |  |  |  |  |  |  |  | Effect on the activity of DXR (E. coli DXR [1]; 2 mM): no effect; Effect on the activity of AP (Calf intestine AP): no effect
Triton X-100 |  |  |  |  |  |  |  |  |  |  |  |  |  | Effect on the activity of DXR (E. coli DXR [1]; 0.1%): no effect
